Measurements from patent publication US9241942B2, “IRE-1α inhibitors” (MannKind Corporation, priority 2007, dated 2016).

How the values were obtained:
[1] = test system: RPMI-8226 multiple myeloma cells; experiment: Proliferation of multiple myeloma cells (CellTiter-Glo); format: cell-based, human; conditions: 24 hours, 100 μM to 0 μM
Method: FIG. 5. Graph showing inhibition of proliferation of multiple myeloma cells by IRE-1α inhibitor 11-28 (Example 11). RPMI-8226 multiple myeloma cells were seeded at 20,000 cells per well in RPMI culture medium containing 1% FBS and the required antibiotics. The plate was incubated overnight at 37° C., 95% air, 5% CO2. The following day, compound 11-28 or medium alone was added to wells, resulting in a final volume of 100 μl per well. The compound concentration ranged from 100 μM to 0 μM, with compounds diluted by a factor of 4. After addition of compound, the plate was incubated at 37° C., 95% air, 5% CO2 for 24 hours. Cell proliferation was measured using the CellTiter-Glo assay (Promega), following the manufacturer's instructions.
Proliferation assays using myeloma cell lines (U266, RPMI8226 and MM.1s) are used to determine ED50. Compounds are used as single agents and in combination with other chemotherapeutic drugs.

human IRE-1α = human IRE-1α (Homo sapiens (Human), UniProt O75460); experiment: IRE-1α assay: cleavage of mini-XBP-1 mRNA stem-loop substrate by GST-IRE-1α in vitro; format: biochemical; conditions: values in text
Method: A fusion protein comprising glutathione S transferase (GST) and human IRE-1α (GST-IRE-1α) was obtained from a 500 ml baculovirus-infected insect cell culture and used to measure IRE-1α activity in vitro.
Five μl of a reaction mixture comprising 1× reaction buffer (5× reaction buffer is 100 mM Hepes pH 7.5, 250 mM KOAc, 2.5 mM MgCl2), 3 mM DTT, and 0.4% polyethylene glycol water were added to each well of 384 well plates. Twenty-five nanoliters of a 1 mM test compound solution were added to test wells. […] Negative control wells contained only reaction mixture and test compound.
The plates were again spun at 1200 rpm for 30 seconds.
The plates were covered with lids and incubated for one hour at 30° C. The plates were then transferred to an ACQUEST™ microplate reader. Data was analyzed using data analysis software, and the percent activity of IRE-1α was calculated.

RNase A = RNase A (Bos taurus (Bovine), UniProt P61823); experiment: RNase A assay with mini-XBP-1 mRNA stem-loop substrate; format: biochemical; conditions: 2.5 μM test compound
Method: RNase A was assayed as described for RNase T1. Final concentrations for the assay were: 63 nM substrate, 0.4 pg RNase A (Qiagen; 100 mg/ml or 7000 U/ml), and 2.5 μM test compound.

RNase T1 = RNase T1 (Aspergillus oryzae (strain ATCC 42149 / RIB 40) (Yellow koji mold), UniProt P00651); experiment: T1 RNase assay with mini-XBP-1 mRNA stem-loop substrate; format: biochemical; conditions: 2.5 μM test compound
Method: T1 RNase was assayed as follows. Five μl of a reaction mixture comprising 1× reaction buffer (5× reaction buffer is 100 mM Hepes pH 7.5, 250 mM KOAc, 2.5 mM MgCl2), 3 mM DTT, and 0.4% polyethylene glycol water were added to each well of 384 well plates. Twenty-five nanoliters of a 1 mM test compound solution were added to test wells. Three μl of a 1/48,000 dilution of an approximately 200,000 U/ml RNase T1 (Worthington) preparation were added to each test well and to positive control wells (final concentration 49.5 pg/well). Negative control wells contained only reaction mixture and test compound.
After spinning the plates at 1200 rpm for 30 seconds, 3 μl of the mini-XBP-1 mRNA stem-loop substrate described in Example 1 were added to each well of a control plate. The plates were again spun at 1200 rpm for 30 seconds. Final concentrations for the assay were: 63 nM substrate, 49.5 pg RNase T1, and 2.5 μM test compound.
The plates were covered with lids and incubated for one hour at 30° C. The plates were then transferred to an ACQUEST™ microplate reader. Data was analyzed using data analysis software. The percent activity of RNase T1 was calculated.

primary murine B cells = experiment: IgM secretion after LPS stimulation of primary B cells (ELISA); format: cell-based, mouse; conditions: added at beginning of stimulation and again at 24 hours, 20 μg/ml LPS, 48 hr
Method: FIG. 9. Inhibition of IgM secretion after LPS stimulation of primary murine B cells with selected IRE-1α inhibitors. […] However, compounds had little effect when at added after 40 hours of stimulation; only slight inhibition at the highest dose. Methods were performed as previously described by Iwakoshi et al., Nature 4, 321-29, 2003 for B cell stimulation, plasma cell differentiation and IgM secretion. Primary B cells were Isolated from BALB/c splenocytes using mouse CD43 Microbeads (Miltenyi cat#130-049-801) with 1×10^6 cells per treatment. Purified B cells were stimulated in B Cell Media at a final density of 1×10^6/ml/well in 24-well plates with 20 μg/ml LPS (Sigma cat#L4391). IRE-1α inhibitor compound 17-1 was added at various concentrations (50 μM, 10 μM, 2 μM, 0.4 μM and 0.08 μM) at specified time points (t=0, t=24 hr, t=40 hr, etc.) Cells were incubated for 48 hr at 37° C. At end of the incubation, cells were spun in a plate at 1500 rpm/3 min. Supernatants were collected for quantitation for IgM secretion using a mouse IgM ELISA Kit (Bethyl Labs cat#E90-101). B Cell medium included RPMI+10% FBS supplemented with NEAA, HEPES, NaPyr, PSQ, and β-mercaptoethanol.

[2] = test system: phosphorylated IRE-1α and XBP1-splicing in RPMI8226 cells; experiment: Western blot and RT-PCR of RPMI8226 cells after 24 hour treatment; format: cell-based, human
From the text: FIG. 6. […] The numbers indicate the concentration of bortezomib in nM.

Chain of RNase T1 (P00651 27-130): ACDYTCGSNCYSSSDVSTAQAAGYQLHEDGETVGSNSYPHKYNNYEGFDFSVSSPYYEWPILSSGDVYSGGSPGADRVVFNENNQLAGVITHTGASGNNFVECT
Chain of RNase A (P61823 27-150): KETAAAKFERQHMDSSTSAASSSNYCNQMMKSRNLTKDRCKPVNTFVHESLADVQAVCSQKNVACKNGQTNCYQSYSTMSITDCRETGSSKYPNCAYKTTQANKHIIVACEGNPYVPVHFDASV
Chain of human IRE-1α (O75460 19-977): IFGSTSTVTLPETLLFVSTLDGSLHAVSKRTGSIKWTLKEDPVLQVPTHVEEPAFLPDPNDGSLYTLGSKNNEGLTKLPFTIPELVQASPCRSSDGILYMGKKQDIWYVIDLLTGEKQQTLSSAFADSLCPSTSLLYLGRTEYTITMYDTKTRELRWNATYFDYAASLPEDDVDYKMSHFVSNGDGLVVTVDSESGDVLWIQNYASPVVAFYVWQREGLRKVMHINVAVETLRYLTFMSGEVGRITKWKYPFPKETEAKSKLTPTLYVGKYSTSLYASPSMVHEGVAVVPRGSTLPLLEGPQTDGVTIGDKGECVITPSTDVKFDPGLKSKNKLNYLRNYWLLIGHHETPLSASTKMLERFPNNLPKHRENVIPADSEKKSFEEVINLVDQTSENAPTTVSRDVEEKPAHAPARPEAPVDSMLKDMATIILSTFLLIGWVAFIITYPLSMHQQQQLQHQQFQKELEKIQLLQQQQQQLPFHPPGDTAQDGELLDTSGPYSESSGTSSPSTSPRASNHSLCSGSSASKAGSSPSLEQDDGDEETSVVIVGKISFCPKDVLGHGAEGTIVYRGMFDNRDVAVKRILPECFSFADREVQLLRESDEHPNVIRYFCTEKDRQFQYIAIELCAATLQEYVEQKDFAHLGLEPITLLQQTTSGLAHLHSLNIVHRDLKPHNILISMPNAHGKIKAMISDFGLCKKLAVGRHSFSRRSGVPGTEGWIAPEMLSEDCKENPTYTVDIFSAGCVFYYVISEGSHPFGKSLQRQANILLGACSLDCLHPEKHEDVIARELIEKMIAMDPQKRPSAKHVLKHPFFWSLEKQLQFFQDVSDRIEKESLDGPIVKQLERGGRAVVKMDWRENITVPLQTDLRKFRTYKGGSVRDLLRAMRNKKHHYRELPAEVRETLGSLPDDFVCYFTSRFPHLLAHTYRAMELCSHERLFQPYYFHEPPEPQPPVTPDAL

Structure (SMILES): COc1cc(-c2cccs2)cc(C=O)c1O [11-28]
- inhibition of proliferation [1]: inhibits the proliferation

Structure (SMILES): CCOc1cccc(C=O)c1O [3-ethoxy o-vanillin, 2-hydroxy-3-ethoxybenzaldehyde]
- IC50 (human IRE-1α): 1000 nM
- selectivity for IRE-1 over RNase A (RNase A): selective for IRE-1
- selectivity for IRE-1 over T1 RNase (RNase T1): selective for IRE-1

Structure (SMILES): CN(C)C(=O)c1ccc(-c2ccc3c(C=O)c(O)ccc3c2)cc1 [17-1, 4-(5-formyl-6-hydroxynaphthalen-2-yl)-N,N-dimethylbenzamide]
- IgM secretion (primary murine B cells): blocked IgM secretion at all doses tested down to 100 nM

Structure (SMILES): CC(C)C[C@H](NC(=O)[C@H](Cc1ccccc1)NC(=O)c1cnccn1)B(O)O [bortezomib, [(1R)-3-methyl-1-[[(2S)-1-oxo-3-phenyl-2-[(pyrazinylcarbonyl)amino]propyl]amino]butyl]boronic acid]
- levels of phosphorylated IRE-1α and XBP1-splicing [2]: increases the levels of phosphorylated IRE-1α and XBP1-splicing

Structure (SMILES): COc1cccc(C=O)c1O [o-vanillin, 2-hydroxy-3-methoxybenzaldehyde]
- selectivity for IRE-1 over RNase A (RNase A): selective for IRE-1
- selectivity for IRE-1 over T1 RNase (RNase T1): selective for IRE-1

Structure (SMILES): COc1ccc(Br)c(C=O)c1O [6-bromo o-vanillin]
- selectivity for IRE-1 over RNase A (RNase A): selective for IRE-1
- selectivity for IRE-1 over T1 RNase (RNase T1): selective for IRE-1
